# Results taken from the supplement of paper PMC9663587.
# How the values were obtained:
# [1] = compound: CCN1CCN(Cc2ccc(Nc3ncc(F)c(-c4cc(F)c5nc(C)n(C(C)C)c5c4)n3)nc2)CC1; assay: increase in dead-cell fraction, 72 h; higher = more death;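 note: breast cancer cell lines in 384-well plates, stained with Hoechst plus LIVE/DEAD far red dye and imaged, cells above an LDR intensity threshold counted dead, Hoechst-negative corpses included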
# LEE011/Ribociclib [2] = compound: T1, CN(C)C(=O)c1cc2cnc(Nc3ccc(N4CCNCC4)cn3)nc2n1C1CCCC1 [LEE011/Ribociclib]; assay: as above
# Flavopiridol [3] = compound: T2, CN1CC[C@H](c2c(O)cc(O)c3c(=O)cc(-c4ccccc4Cl)oc23)[C@H](O)C1 [Flavopiridol]; assay: as above
# [4] = compound: CC(=O)c1c(C)c2cnc(Nc3ccc(N4CCNCC4)cn3)nc2n(C2CCCC2)c1=O; assay: as above
# [5] = compound: CCN1CCN(Cc2ccc(Nc3ncc(F)c(-c4cc(F)c5nc(C)n(C(C)C)c5c4)n3)nc2)CC1; assay: GR value, 72 h; higher = faster growth (1 = untreated, <0 = killing);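 note: breast cancer and non-malignant breast epithelial lines, nine half-log doses, viable cells counted by Hoechst and LIVE/DEAD dye imaging versus time-zero plates and DMSO controls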
# THZ1 = compound: CN(C)C/C=C/C(=O)Nc1ccc(C(=O)Nc2cccc(Nc3ncc(Cl)c(-c4c[nH]c5ccccc45)n3)c2)cc1 [THZ1]; assay: as above
# LEE011/Ribociclib [6] = compound: T1, LEE011/Ribociclib; assay: as above
# Neratinib/HKI272 = compound: CCOc1cc2ncc(C#N)c(Nc3ccc(OCc4ccccn4)c(Cl)c3)c2cc1NC(=O)/C=C/CN(C)C [Neratinib/HKI272]; assay: as above
# Flavopiridol [7] = compound: T2, Flavopiridol; assay: as above
# [8] = compound: CCc1cnn2c(NCc3ccc[n+]([O-])c3)cc(N3CCCC[C@H]3CCO)nc12; assay: as above
# BSJ-03-123 = compound: CC(=O)c1c(C)c2cnc(Nc3ccc(N4CCN(CCOCCOCCOCCNC(=O)COc5cccc6c5C(=O)N(C5CCC(=O)NC5=O)C6=O)CC4)cn3)nc2n(C2CCCC2)c1=O [BSJ-03-123]; assay: as above
# [9] = compound: CC(=O)c1c(C)c2cnc(Nc3ccc(N4CCNCC4)cn3)nc2n(C2CCCC2)c1=O; assay: as above
cell line,measurement,setting,value
184A1,increase in dead-cell fraction,[1]; 0.001 µM,0.0016
same,increase in dead-cell fraction,[1]; 0.003162 µM,0.0047
same,increase in dead-cell fraction,[1]; 0.01 µM,0.0067
same,increase in dead-cell fraction,[1]; 0.03162 µM,0.0185
same,increase in dead-cell fraction,[1]; 0.1 µM,0.0336
same,increase in dead-cell fraction,[1]; 0.3162 µM,0.0578
same,increase in dead-cell fraction,[1]; 1 µM,0.056
same,increase in dead-cell fraction,[1]; 3.162 µM,0.0434
same,increase in dead-cell fraction,[1]; 10 µM,0.229
same,increase in dead-cell fraction,LEE011/Ribociclib [2]; 0.001 µM,0.0076
same,increase in dead-cell fraction,LEE011/Ribociclib [2]; 0.003162 µM,0.0015
same,increase in dead-cell fraction,LEE011/Ribociclib [2]; 0.01 µM,0.0139
same,increase in dead-cell fraction,LEE011/Ribociclib [2]; 0.03162 µM,0.0172
same,increase in dead-cell fraction,LEE011/Ribociclib [2]; 0.1 µM,0.0129
same,increase in dead-cell fraction,LEE011/Ribociclib [2]; 0.3162 µM,0.0139
same,increase in dead-cell fraction,LEE011/Ribociclib [2]; 1 µM,0.0153
same,increase in dead-cell fraction,LEE011/Ribociclib [2]; 3.162 µM,0.015
same,increase in dead-cell fraction,LEE011/Ribociclib [2]; 10 µM,0.041
same,increase in dead-cell fraction,Flavopiridol [3]; 0.0001 µM,-0.0061
same,increase in dead-cell fraction,Flavopiridol [3]; 0.0003162 µM,0.0046
same,increase in dead-cell fraction,Flavopiridol [3]; 0.001 µM,-0.0038
same,increase in dead-cell fraction,Flavopiridol [3]; 0.003162 µM,-0.0001
same,increase in dead-cell fraction,Flavopiridol [3]; 0.01 µM,0.0054
same,increase in dead-cell fraction,Flavopiridol [3]; 0.03162 µM,0.0223
same,increase in dead-cell fraction,Flavopiridol [3]; 0.1 µM,0.0902
same,increase in dead-cell fraction,Flavopiridol [3]; 0.3162 µM,0.231
same,increase in dead-cell fraction,Flavopiridol [3]; 1 µM,0.0866
same,increase in dead-cell fraction,[4]; 0.0003162 µM,-0.0004
same,increase in dead-cell fraction,[4]; 0.001 µM,0.0016
same,increase in dead-cell fraction,[4]; 0.003162 µM,-0.0008
same,increase in dead-cell fraction,[4]; 0.01 µM,0.0001
same,increase in dead-cell fraction,[4]; 0.03162 µM,0.0086
same,increase in dead-cell fraction,[4]; 0.1 µM,0.0183
same,increase in dead-cell fraction,[4]; 0.3162 µM,0.0224
same,increase in dead-cell fraction,[4]; 1 µM,0.0414
same,increase in dead-cell fraction,[4]; 3.162 µM,0.0383
same,GR value,[5]; 0.001 µM,0.939 GR
same,GR value,[5]; 0.003162 µM,0.858 GR
same,GR value,[5]; 0.01 µM,0.69 GR
same,GR value,[5]; 0.03162 µM,0.413 GR
same,GR value,[5]; 0.1 µM,0.267 GR
same,GR value,[5]; 0.3162 µM,0.13 GR
same,GR value,[5]; 1 µM,0.0708 GR
same,GR value,[5]; 3.162 µM,0.0774 GR
same,GR value,[5]; 10 µM,-0.105 GR
same,GR value,THZ1; 0.0001 µM,1.02 GR
same,GR value,THZ1; 0.0003162 µM,1 GR
same,GR value,THZ1; 0.001 µM,1.01 GR
same,GR value,THZ1; 0.003162 µM,0.822 GR
same,GR value,THZ1; 0.01 µM,0.39 GR
same,GR value,THZ1; 0.03162 µM,-0.094 GR
same,GR value,THZ1; 0.1 µM,-0.2 GR
same,GR value,THZ1; 0.3162 µM,-0.209 GR
same,GR value,LEE011/Ribociclib [6]; 0.001 µM,0.846 GR
same,GR value,LEE011/Ribociclib [6]; 0.003162 µM,0.792 GR
same,GR value,LEE011/Ribociclib [6]; 0.01 µM,0.664 GR
same,GR value,LEE011/Ribociclib [6]; 0.03162 µM,0.633 GR
same,GR value,LEE011/Ribociclib [6]; 0.1 µM,0.549 GR
same,GR value,LEE011/Ribociclib [6]; 0.3162 µM,0.552 GR
same,GR value,LEE011/Ribociclib [6]; 1 µM,0.446 GR
same,GR value,LEE011/Ribociclib [6]; 3.162 µM,0.306 GR
same,GR value,LEE011/Ribociclib [6]; 10 µM,0.11 GR
same,GR value,Neratinib/HKI272; 0.0003162 µM,0.998 GR
same,GR value,Neratinib/HKI272; 0.001 µM,1 GR
same,GR value,Neratinib/HKI272; 0.003162 µM,1.02 GR
same,GR value,Neratinib/HKI272; 0.01 µM,0.853 GR
same,GR value,Neratinib/HKI272; 0.03162 µM,0.468 GR
same,GR value,Neratinib/HKI272; 0.1 µM,0.287 GR
same,GR value,Neratinib/HKI272; 0.3162 µM,0.219 GR
same,GR value,Neratinib/HKI272; 1 µM,0.198 GR
same,GR value,Neratinib/HKI272; 3.162 µM,0.166 GR
same,GR value,Flavopiridol [7]; 0.0001 µM,1.04 GR
same,GR value,Flavopiridol [7]; 0.0003162 µM,1 GR
same,GR value,Flavopiridol [7]; 0.001 µM,1.01 GR
same,GR value,Flavopiridol [7]; 0.003162 µM,0.931 GR
same,GR value,Flavopiridol [7]; 0.01 µM,0.838 GR
same,GR value,Flavopiridol [7]; 0.03162 µM,0.614 GR
same,GR value,Flavopiridol [7]; 0.1 µM,0.0558 GR
same,GR value,Flavopiridol [7]; 0.3162 µM,-0.172 GR
same,GR value,Flavopiridol [7]; 1 µM,-0.307 GR
same,GR value,[8]; 0.0001 µM,1.04 GR
same,GR value,[8]; 0.0003162 µM,1.05 GR
same,GR value,[8]; 0.001 µM,1.04 GR
same,GR value,[8]; 0.003162 µM,0.865 GR
same,GR value,[8]; 0.01 µM,0.401 GR
same,GR value,[8]; 0.03162 µM,-0.275 GR
same,GR value,[8]; 0.1 µM,-0.222 GR
same,GR value,[8]; 0.3162 µM,-0.306 GR
same,GR value,[8]; 1 µM,-0.346 GR
same,GR value,BSJ-03-123; 0.001 µM,0.716 GR
same,GR value,BSJ-03-123; 0.003162 µM,0.636 GR
same,GR value,BSJ-03-123; 0.01 µM,0.521 GR
same,GR value,BSJ-03-123; 0.03162 µM,0.296 GR
same,GR value,BSJ-03-123; 0.1 µM,0.243 GR
same,GR value,BSJ-03-123; 0.3162 µM,0.145 GR
same,GR value,BSJ-03-123; 1 µM,0.114 GR
same,GR value,BSJ-03-123; 3.162 µM,0.101 GR
same,GR value,BSJ-03-123; 10 µM,-0.139 GR
same,GR value,[9]; 0.0003162 µM,1.04 GR
same,GR value,[9]; 0.001 µM,0.968 GR
same,GR value,[9]; 0.003162 µM,0.963 GR
same,GR value,[9]; 0.01 µM,0.848 GR
same,GR value,[9]; 0.03162 µM,0.664 GR
same,GR value,[9]; 0.1 µM,0.465 GR
same,GR value,[9]; 0.3162 µM,0.324 GR
same,GR value,[9]; 1 µM,0.191 GR
same,GR value,[9]; 3.162 µM,0.128 GR
